Reference: patent US12006302B2, “Tau PET imaging ligands” (Janssen Pharmaceutica NV, priority 2016, dated 2024)
pKd: −log10 of the molar value. One block for each molecule: values may come before it.

What was measured:
[1] = system: NFTs / cortical tau-rich regions; test: digital autoradiography with [18F]Co. No. 1 on human AD visual cortex slices, with blocking; type: binding; settings: blocker 1 μM; human AD visual cortex slices
Experimental: Adjacent slices were immunostained for tau pathology (B, AT8) and for amyloid beta pathology (C, 4G8).
a) Air-dried frozen, 10-μm-thick slices of the visual cortex of an AD-patient (with Braak stage V-VI) were incubated for 60 min with [^18F]Co. No. 1 (7.4 kBq/500 μL per slice) and subsequently washed with mixtures of PBS and ethanol as described elsewhere (Xia C. F., Arteaga J., Chen G., et al. Alzheimer's Dement. 2013, 1-11). To assess specificity of binding, slices were incubated with tracer in the presence of 1 μM of authentic T808 or Co. No. 1. After drying, slices were exposed to a phosphor storage screen (super-resolution screen, Perkin Elmer). Screens were read in a Cyclone Plus system (Perkin Elmer, Waltham, MA, U.S.A.) and analyzed using Optiquant software. Results are expressed as digital light units per square mm (DLU/mm^2). Adjacent AD slices were immunostained with anti-tau (AT8) and anti-Aβ antibodies (4G8), to correlate with [^18F]Co. No. 1 binding.

aggregated tau = aggregated tau (Homo sapiens, UniProt P10636); settings: literature; cited from earlier work
aggregated tau, sequence (P10636 1-441 isoform P10636-8): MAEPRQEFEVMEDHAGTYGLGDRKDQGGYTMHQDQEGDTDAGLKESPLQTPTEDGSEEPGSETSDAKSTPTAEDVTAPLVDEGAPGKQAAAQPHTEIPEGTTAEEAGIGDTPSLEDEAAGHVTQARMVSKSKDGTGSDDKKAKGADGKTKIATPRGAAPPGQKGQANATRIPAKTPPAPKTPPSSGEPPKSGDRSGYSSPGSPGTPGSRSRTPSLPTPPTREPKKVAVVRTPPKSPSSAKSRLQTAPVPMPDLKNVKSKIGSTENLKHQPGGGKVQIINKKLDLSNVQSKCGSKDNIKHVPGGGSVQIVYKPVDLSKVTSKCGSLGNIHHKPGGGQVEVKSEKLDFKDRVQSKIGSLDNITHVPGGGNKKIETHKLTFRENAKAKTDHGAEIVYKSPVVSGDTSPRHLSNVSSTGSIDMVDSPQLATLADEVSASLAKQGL

[2] = system: AD tissue containing only Aβ plaques; test: in vitro binding of tritiated tracers to tau-negative AD tissue; parameters: species or system human; settings: tracer 10 nM
Experimental: (§1) The tracer was tested at 10 nM and higher concentrations were not investigated in this study.
(§2) [^3H]-AV-45 (selective for Aβ plaques) binds both tau and Aβ pathology (Aβ+/tau+, Tissue #28391) and Aβ pathology only (Aβ+/tau−, Tissue #92/050) human tissues as expected (FIG. 3L-M). As a control for the human AD tissues (Tissue #28391: FIG. 4, Tissue #92/050: FIG. 5) and striatal tissue (FIG. 6) used in this study immunohistochemistry was performed. […] Furthermore, MAO-B and MAO-A expression in the human striatal tissue (#S96/037) was confirmed using immunohistochemistry (FIG. 6).

MAO = test: in vitro binding of tritiated tracers to MAO-rich human tissue (striatum); settings: for tracer binding to MAO-rich human tissue (striatum): tracer 10 nM
Experimental: as §1
In comparison, the tau tracer [^3H]-THK-5351 and the Aβ tracer [^3H]-AV-45 were used as THK-5351 is known to also bind MAO.

[3] = system: human AD brain cortex homogenates containing abundant NFT; settings: literature; cited from earlier work
[4] = molecular target: T1, amyloid plaque-rich, NFT-poor AD brain homogenates (Homo sapiens, UniProt P05067); settings: literature; cited from earlier work
T1 construct: amyloid plaques which form by aggregation of beta-amyloid peptide; host or cells: AD brain homogenates
T1 sequence (P05067 672-713 limits assumed): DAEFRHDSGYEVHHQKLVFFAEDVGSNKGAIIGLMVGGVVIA

[5] = literature; cited from earlier work
[6] = molecular target: extracted human tau aggregates (Homo sapiens, UniProt P10636); test: competitive radioligand binding assay, [3H]-T808 displacement
extracted human tau aggregates, sequence (P10636 623-695 limits assumed): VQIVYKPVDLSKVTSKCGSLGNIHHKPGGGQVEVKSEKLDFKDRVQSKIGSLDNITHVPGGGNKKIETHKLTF
Experimental: Briefly, frozen human AD brain samples (˜10 g) were homogenized with 10 vol of cold homogenization buffer (10 mM Tris, 800 mM NaCl, 1 mM EGTA, 10% sucrose, pH 7.4 containing PhosSTOP phosphatase and cOmplete EDTA-free protease inhibitor (Roche, Vilvoorde, Belgium)) on ice. After centrifugation at 27 000×g for 20 min at 4° C. the supernatant was recovered and 1% (w/v) N-lauroylsarcosine and 1% (v/v) 2-mercaptoethanol were added. The N-lauroylsarcosine/2-mercaptoethanol supernatant was incubated for 2 h at 37° C. while shaking on an orbital shaker. Subsequently, ultracentrifugation at 108 000×g for 1.5 h at room temperature enriched aggregated tau in the pellet. Supernatant was removed and the pellet was carefully rinsed twice with a small amount of TBS (50 mM Tris, 150 mM NaCl, pH 7.4). […]
Briefly, aggregated tau preps were diluted to 100 μg protein/mi in PBS buffer with 5% ethanol. […] After overnight drying of the filter plate, Microscint O liquid (Perkin Elmer) was added and the amount of radiolabeled ligand bound to the fibrils is measured by liquid scintillation counting in a Topcount instrument (Packard Instrument Company, Connecticut, USA).
(§3) Values for half-maximal inhibitory concentration (IC50) were determined from displacement curves of at least two independent experiments using GraphPad Prism software (GraphPad Software, San Diego, CA).

[7] = molecular target: T2, extracted human amyloid-beta aggregates (Homo sapiens, UniProt P05067); test: competitive radioligand binding assay, [3H]-AV-45 displacement
T2 construct: amyloid plaques which form by aggregation of beta-amyloid peptide; from tissue; host or cells: human AD brain, occipital cortex with high amyloid plaque load
T2 sequence (P05067 672-713 limits assumed): as the sequence (P05067 672-713 limits assumed) above
Experimental: Enriched aggregated β-amyloid preps were prepared from frozen human AD brain samples (10 g—occipital cortex with high amyloid plaques load) that were homogenized with 7-fold vol of cold homogenization buffer (250 mM sucrose, 20 mM Tris base, 1 mM EDTA, 1 mM EGTA and PhosSTOP phosphatase and cOmplete EDTA-free protease inhibitor) on ice. After centrifugation at 27 000×g for 20 min at 4° C. cell debris was removed. Supernatant containing amyloid plaques was aliquoted and stored at −80° C.
The competitive radioligand binding assays measure the binding of a radiolabeled reference ligand in the presence of a dose response concentration range of test compounds.
as §3
To determine compound binding to aggregated β-amyloid a similar assay was put in place but with some minor modifications. […] Nonspecific binding was determined in the presence of 500 μM Thioflavin T. After 150 min incubation at room temperature, the binding mixtures were filtered over GF/B glass filters. […]

[8] = system: tau pathology in human AD slices; test: [18F]Co. No. 1 binding to human AD tissue in the presence of MAO binders; settings: compound 10 μM; 0.2 mCi/mL tracer
Experimental: c) Binding of [^18F] Co. No. 1 to human AD tissue was assessed in the presence of reported MAO binders. […] This binding pattern was maintained when the sample was incubated with 10 μM of clorgiline, a strong irreversible MAO binder with moderate selectivity for the A-subtype (FIG. 7B), or 10 μM selegiline (=deprenyl), a strong irreversible MAO-B binder (FIG. 7C). The binding of [^18F] […] Adjacent AD slices were immunostained with anti-tau (AT8) and anti-Aβ (4G8) antibodies to correlate with [^18F]Co. No. 1 binding (FIG. 8).

[9] = molecular target: peripheral cortical benzodiazepine receptors in activated microglia (Homo sapiens, UniProt P30536); settings: literature; cited from earlier work
peripheral cortical benzodiazepine receptors in activated microglia, sequence (P30536 whole entry): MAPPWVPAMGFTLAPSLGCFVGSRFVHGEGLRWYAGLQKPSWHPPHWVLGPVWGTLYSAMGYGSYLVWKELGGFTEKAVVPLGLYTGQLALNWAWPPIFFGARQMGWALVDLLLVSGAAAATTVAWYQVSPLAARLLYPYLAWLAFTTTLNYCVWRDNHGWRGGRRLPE

[10] = system: AD brain containing tau and Aβ pathology; test: in vitro binding of tritiated tracers to frozen AD brain slices with tau and Aβ pathology; parameters: species or system human; settings: tracer 10 nM
Experimental: as §1, §2

PHF = PHF (Homo sapiens, UniProt P10636); settings: literature; cited from earlier work
PHF, sequence (P10636 1-441 isoform P10636-8): as the sequence (P10636 1-441 isoform P10636-8) above

monoamine oxidase MAO-B = molecular target: T3, monoamine oxidase MAO-B (Homo sapiens, UniProt P27338); settings: literature; cited from earlier work
T3 construct: PET imaging of the human brain with the quinoline compound; host or cells: human brain in vivo
T3 sequence (P27338 1-520): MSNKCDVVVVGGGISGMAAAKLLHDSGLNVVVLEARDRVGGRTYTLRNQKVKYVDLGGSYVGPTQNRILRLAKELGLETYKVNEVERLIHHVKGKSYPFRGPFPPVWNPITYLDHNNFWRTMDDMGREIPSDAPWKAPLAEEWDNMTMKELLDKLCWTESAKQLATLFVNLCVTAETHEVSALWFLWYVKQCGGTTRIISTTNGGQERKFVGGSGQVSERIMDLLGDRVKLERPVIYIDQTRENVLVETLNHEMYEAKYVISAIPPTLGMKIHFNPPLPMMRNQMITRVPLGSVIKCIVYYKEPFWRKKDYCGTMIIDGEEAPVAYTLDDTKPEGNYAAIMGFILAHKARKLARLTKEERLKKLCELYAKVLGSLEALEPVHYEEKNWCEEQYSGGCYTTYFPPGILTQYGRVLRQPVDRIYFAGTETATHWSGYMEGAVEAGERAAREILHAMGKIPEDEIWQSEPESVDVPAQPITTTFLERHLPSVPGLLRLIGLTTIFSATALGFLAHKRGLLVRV

Compound: Nc1c(F)ccc2cnc(-n3ccc4ccncc43)cc12 [^18F-MK-6240, 6-fluoro-3-(1H-pyrrolo[2,3-c]pyridine-1-yl)isoquinoline-5-amine]
- binding to human AD brain cortex homogenates containing abundant NFT [3]: binds with high affinity
- binding to amyloid plaque-rich, NFT-poor AD brain homogenates [4]: binds poorly
- defluorination as skull uptake [5]: Moderate defluorination

Compound: Cc1cnc(Nc2ccc3cnccc3c2)cc1F [Co. No. 1]
- IC50 ([6]; displacement of [3H]-T808 (10 nM), read-out: pIC50, binding to extracted human tau aggregates (converted)): 5.75 nM
- Ki ([6]; displacement of [3H]-T808, read-out: Ki corresponding to pIC50, extracted human tau (converted)): 2.4 nM
- IC50 ([7]; displacement of [3H]-AV-45 (10 nM), read-out: pIC50, binding to extracted human amyloid-beta aggregates (converted)): 6610 nM
- Ki ([7]; displacement of [3H]-AV-45, read-out: Ki corresponding to pIC50, extracted human amyloid-beta aggregates (converted)): 3200 nM
- inhibition of [18F]Co. No. 1 binding [1]: 99%
- blocking of [3H]-THK-5351 binding to MAO-rich human tissue (MAO; cold compound 10 μM, 10 nM [3H]-THK-5351): blocked
- effect on [18F]Co. No. 1 binding pattern in human AD slices [8]: entirely blocked
- melting point: 182.53 °C

Compound: CCC(C)N([11CH3])C(=O)c1cc2ccccc2c(-c2ccccc2Cl)n1 (stereo not shown) [[^11C]PK11195]
- brain retention, patients versus healthy volunteers [9]: failing to show any differences

Compound: CNc1ccc(-c2ccc3cc(OC[C@H](O)C[18F])ccc3n2)cn1 [^18F-THK5351]
- affinity to PHF (PHF): high affinity
- off-target binding in PET imaging of the human brain (monoamine oxidase MAO-B): confounded by off-target binding

Now from value to molecule, other results behind:

- inhibition of [18F]Co. No. 1 binding [1]: 99%
Compound: FCCC1CCN(c2ccn3c(n2)nc2ccccc23)CC1 [T808]
- pKd (aggregated tau): 7.66
- selectivity for tau over Aβ aggregates (aggregated tau): 27 fold

- tracer binding to tau-negative AD tissue containing only Aβ plaques [2]: binds
- tracer binding to MAO-rich human tissue (striatum) (MAO): binds
Compound: CNc1ccc(-c2ccc3cc(OC[C@H](O)CF)ccc3n2)cn1 [[^3H]-THK-5351, reference compound]

- tracer binding to AD brain slices containing tau and Aβ pathology [10]: binds
- tracer binding to tau-negative AD tissue containing only Aβ plaques [2]: does not bind
- tracer binding to MAO-rich human tissue (striatum) (MAO): no binding
Compound: Cc1cnc(Nc2ccc3cnccc3c2)cc1F [[^3H]-Co. No. 1]
